Reference: patent publication US20090069359A1 (priority 2006, published 2009)

What was measured:
[1] = system: facial wrinkles; details: human, in vivo
[2] = system: hair loss and baldness; parameters: species or system human; details: in vivo
[3] = system: erectile dysfunction; parameters: species or system human; details: in vivo
[4] = system: Peyronie's disease; parameters: species or system human; details: in vivo

CC1=C(/C=C/C(C)=C/C=C/C(C)=C/C(=O)O)C(C)(C)CCC1 [Retin A, tretinoin]
duration of wrinkle reducing effect [1]: lasts up to one week
period over which wrinkle reducing effect occurs [1]: 72 h
wrinkle treatment outcome [1]: used successfully

C[C@H]1C[C@H]2[C@@H]3CCC4=CC(=O)C=C[C@]4(C)[C@@]3(F)[C@@H](O)C[C@]2(C)[C@@]1(O)C(=O)CO [betamethasone]
time of treatment after which new hair growth began [2]: 30 days

CC12CCC(CC1)C(C)(C)O2 [eucalyptol]
erections [3]: improved erections were obtained

CC1CCC(C(C)C)C(O)C1 (stereo not drawn) [menthol]
erections [3]: improved erections were obtained

Nc1cc(N2CCCCC2)nc(N)[n+]1[O-] [minoxidil]
time of treatment after which new hair growth began [2]: 30 days

CC(C)NCC(O)COc1cccc2ccccc12 (stereo not drawn) [propranolol]
penile curvature outcome [4]: gradually attained a straightened penis
time to straightened penis [4]: ≤ 90 days

botulinum toxina [Botox]
duration of wrinkle reducing effect [1]: lasts up to one week
period over which wrinkle reducing effect occurs [1]: 72 h
wrinkle treatment outcome [1]: used successfully
